According to US10544103B2, “5-HT2 antagonists” (ANAMAR AB, priority 2015, dated 2020):

Target: T1, 5-HT2B receptor (Homo sapiens, UniProt P41595)
T1 construct: host or cells: CHO-K1
Experiment: 5-HT2B receptor binding, 3H-LSD ligand displacement assay
Conditions: for inhibition at 0.01 µM: 0.01 uM compound; for inhibition at 0.1 µM: 0.1 uM compound; for inhibition at 1 µM: 1 uM compound; for inhibition at 0.001 µM: 0.001 uM compound
Protocol: 5-HT2B receptor binding (performed at Eurofins Panlabs Taiwan, Ltd.) to human receptor protein expressed in CHO-K1 cells was determined in a ligand displacement assay using ^3H-lysergic acid diethylamide (LSD) as radioligand and ketanserine as a standard reference compound. Data is presented as % displacement of radioligand at indicated compound concentrations, see Table 1 and Table 2.

T1 sequence (P41595 whole entry): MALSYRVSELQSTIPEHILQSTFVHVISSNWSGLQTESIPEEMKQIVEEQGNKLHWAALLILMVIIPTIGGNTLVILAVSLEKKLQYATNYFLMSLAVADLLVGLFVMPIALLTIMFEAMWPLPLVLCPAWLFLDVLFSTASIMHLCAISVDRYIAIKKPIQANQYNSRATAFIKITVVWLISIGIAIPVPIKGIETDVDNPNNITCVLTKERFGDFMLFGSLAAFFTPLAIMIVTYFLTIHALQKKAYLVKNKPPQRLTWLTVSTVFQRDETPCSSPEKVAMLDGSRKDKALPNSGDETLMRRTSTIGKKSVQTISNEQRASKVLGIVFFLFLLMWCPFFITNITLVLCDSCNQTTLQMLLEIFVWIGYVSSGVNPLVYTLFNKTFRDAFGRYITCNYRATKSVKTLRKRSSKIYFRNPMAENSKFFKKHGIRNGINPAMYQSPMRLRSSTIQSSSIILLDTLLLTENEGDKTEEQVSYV

| SMILES | inhibition at 0.01 µM [%] | inhibition at 0.1 µM [%] | inhibition at 1 µM [%] | inhibition at 0.001 µM [%] |
| --- | --- | --- | --- | --- |
| COc1ccc(Cl)cc1C1=NN(C(=N)N)CC1C (centres unmarked) [Example 51, 3-(5-Chloro-2-methoxyphenyl)-4-methyl-4,5-dihydro-1H-pyrazole-1-carboximidamide] | 7 | 31 | 76 |  |
| CC1CN(C(=N)N)N=C1c1cc(Cl)ccc1O (centres unmarked) [Example 52, 3-(5-Chloro-2-hydroxyphenyl)-4-methyl-4,5-dihydro-1H-pyrazole-1-carboximidamide] | 34 | 72 | 95 |  |
| COc1c(Cl)cccc1C1=NN(C(=N)N)CC1C (centres unmarked) [Example 53, 3-(3-Chloro-2-methoxyphenyl)-4-methyl-4,5-dihydro-1H-pyrazole-1-carboximidamide] | 40 | 87 | 100 |  |
| CC1CN(C(=N)N)N=C1c1cccc(Cl)c1O (centres unmarked) [Example 54, 3-(3-Chloro-2-hydroxyphenyl)-4-methyl-4,5-dihydro-1H-pyrazole-1-carboximidamide] | 81 | 95 | 101 |  |
| CC1CN(C(=N)NCc2ccc(Cl)cc2)N=C1c1ccccc1O (centres unmarked) [Example 55, N-(4-Chlorobenzyl)-3-(2-hydroxyphenyl)-4-methyl-4,5-dihydro-1H-pyrazole-1-carboximidamide] | 67 |  |  | 16 |
| CC1CN(C(=N)NCc2ccccc2Cl)N=C1c1ccccc1O (centres unmarked) [Example 56, N-(2-Chlorobenzyl)-3-(2-hydroxyphenyl)-4-methyl-4,5-dihydro-1H-pyrazole-1-carboximidamide] | 95 |  |  | 52 |
| CC1CN(C(=N)NCc2ccc(Cl)cc2Cl)N=C1c1ccccc1O (centres unmarked) [Example 57, N-(2,4-Dichlorobenzyl)-3-(2-hydroxyphenyl)-4-methyl-4,5-dihydro-1H-pyrazole-1-carboximidamide] | 78 |  |  | 21 |
| CC1CN(C(=N)NCc2ccc(Cl)c(Cl)c2)N=C1c1ccccc1O (centres unmarked) [Example 58, N-(3,4-Dichlorobenzyl)-3-(2-hydroxyphenyl)-4-methyl-4,5-dihydro-1H-pyrazole-1-carboximidamide] | 52 |  |  | 2 |
| COc1ccc(CNC(=N)N2CC(C)C(c3ccccc3O)=N2)cc1 (centres unmarked) [Example 59, 3-(2-Hydroxyphenyl)-N-(4-methoxybenzyl)-4-methyl-4,5-dihydro-1H-pyrazole-1-carboximidamide] | 74 |  |  | 20 |
| COc1ccc(CNC(=N)N2CC(C)C(c3ccccc3O)=N2)cc1OC (centres unmarked) [Example 60, N-(3,4-Dimethoxybenzyl)-3-(2-hydroxyphenyl)-4-methyl-4,5-dihydro-1H-pyrazole-1-carboximidamide] | 28 |  |  | 6 |
| COc1cc(CNC(=N)N2CC(C)C(c3ccccc3O)=N2)cc(OC)c1 (centres unmarked) [Example 61, N-(3,5-Dimethoxybenzyl)-3-(2-hydroxyphenyl)-4-methyl-4,5-dihydro-1H-pyrazole-1-carboximidamide] | 36 |  |  | 13 |
| COc1ccc(CNC(=N)N2CC(C)C(c3ccccc3O)=N2)cc1Cl (centres unmarked) [Example 62, N-(3-chloro-4-methoxybenzyl)-3-(2-hydroxyphenyl)-4-methyl-4,5-dihydro-1H-pyrazole-1-carboximidamide] | 72 |  |  | 27 |
| CC1CN(C(=N)N[C@H](C)c2ccccc2)N=C1c1ccccc1O (stereo partly drawn) [Example 63, 3-(2-Hydroxyphenyl)-4-methyl-N—((R)-1-phenylethyl)-4,5-dihydro-1H-pyrazole-1-carboximidamide] | 81 |  |  | 36 |
| CC1CN(C(=N)N[C@@H](C)c2ccccc2)N=C1c1ccccc1O (stereo partly drawn) [Example 64, 3-(2-Hydroxyphenyl)-4-methyl-N—((S)-1-phenylethyl)-4,5-dihydro-1H-pyrazole-1-carboximidamide] | 43 |  |  | 23 |
